Columns and labels:
Format in all cases: functional, cell-based
[1] = target: T1, Solute carrier organic anion transporter family member 1B1 (Homo sapiens, UniProt Q9Y6L6); experiment: TP_TRANSPORTER: inhibition of E217betaG uptake in OATP-C-expressing HEK293 cells
T1 sequence (Q9Y6L6 whole entry): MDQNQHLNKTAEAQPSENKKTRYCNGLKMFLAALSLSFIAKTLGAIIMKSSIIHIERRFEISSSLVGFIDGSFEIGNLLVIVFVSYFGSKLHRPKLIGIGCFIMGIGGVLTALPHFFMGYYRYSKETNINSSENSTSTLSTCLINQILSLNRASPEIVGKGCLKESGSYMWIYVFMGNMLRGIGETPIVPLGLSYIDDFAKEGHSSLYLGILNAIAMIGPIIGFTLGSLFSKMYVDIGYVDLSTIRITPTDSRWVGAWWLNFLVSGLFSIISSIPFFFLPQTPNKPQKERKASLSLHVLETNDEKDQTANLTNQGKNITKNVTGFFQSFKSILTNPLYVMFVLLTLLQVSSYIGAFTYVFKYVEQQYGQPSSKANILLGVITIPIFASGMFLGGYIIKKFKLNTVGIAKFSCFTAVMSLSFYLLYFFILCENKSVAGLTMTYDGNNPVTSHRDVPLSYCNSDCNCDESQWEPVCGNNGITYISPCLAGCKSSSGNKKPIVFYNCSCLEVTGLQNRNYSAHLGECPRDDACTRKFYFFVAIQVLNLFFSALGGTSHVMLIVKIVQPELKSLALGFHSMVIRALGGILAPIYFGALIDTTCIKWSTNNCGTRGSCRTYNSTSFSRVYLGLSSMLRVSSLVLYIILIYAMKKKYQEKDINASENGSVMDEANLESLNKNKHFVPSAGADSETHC

[2] = target: T2, OATP-C (OATP1B1, SLCO1B1) (Homo sapiens, UniProt Q9Y6L6); experiment: TP_TRANSPORTER: inhibition of E217betaG uptake (DIDS: 50 uM, E217betaG: 1 uM) in OATP-C-expressing HEK293 cells; design: scale not given: the % may be the effect or the level left; conditions: probe E217betaG (estradiol 17beta-glucuronide), read-out: Activity
T2 sequence (Q9Y6L6 whole entry): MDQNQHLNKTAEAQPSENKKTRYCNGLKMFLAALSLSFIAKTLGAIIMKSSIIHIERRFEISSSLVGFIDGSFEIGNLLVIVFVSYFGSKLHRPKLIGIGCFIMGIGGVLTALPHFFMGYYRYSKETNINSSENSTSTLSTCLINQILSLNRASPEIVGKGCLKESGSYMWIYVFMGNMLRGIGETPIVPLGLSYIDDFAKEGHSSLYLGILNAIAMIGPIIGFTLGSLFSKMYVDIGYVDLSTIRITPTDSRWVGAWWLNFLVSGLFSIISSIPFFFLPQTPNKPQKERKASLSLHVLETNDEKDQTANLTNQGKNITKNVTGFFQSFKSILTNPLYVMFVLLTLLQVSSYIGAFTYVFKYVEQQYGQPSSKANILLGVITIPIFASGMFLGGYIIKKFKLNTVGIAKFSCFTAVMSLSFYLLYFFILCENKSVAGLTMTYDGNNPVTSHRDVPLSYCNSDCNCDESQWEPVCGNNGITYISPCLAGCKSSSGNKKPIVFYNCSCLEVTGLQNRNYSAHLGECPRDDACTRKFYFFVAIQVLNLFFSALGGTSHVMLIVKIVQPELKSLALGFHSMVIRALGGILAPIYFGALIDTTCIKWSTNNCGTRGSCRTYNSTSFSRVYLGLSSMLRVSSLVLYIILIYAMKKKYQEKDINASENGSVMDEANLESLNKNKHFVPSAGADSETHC

[3] = target: T1, Solute carrier organic anion transporter family member 1B1; experiment: (§1) TP_TRANSPORTER: uptake in OATP-C-expressing HEK293 cells
[4] = substrate: C[C@]12CC[C@@H]3c4ccc(O)cc4CC[C@H]3[C@@H]1CC[C@@H]2O[C@@H]1O[C@H](C(=O)O)[C@@H](O)[C@H](O)[C@H]1O; experiment: as §1

O=C1OC(c2ccc(O)c(S(=O)(=O)O)c2)(c2ccc(O)c(S(=O)(=O)O)c2)c2c(Br)c(Br)c(Br)c(Br)c21 [SULFOBROMOPHTHALEIN SODIUM]
Ki [1]: 44 nM

O=S(=O)(O)c1cc(N=C=S)ccc1/C=C/c1ccc(NC=S)cc1S(=O)(=O)O
activity at 50 µM [2]: 6%

C=CC1=C(C)/C(=C/c2[nH]c(Cc3[nH]c(/C=C4\NC(=O)C(C)=C4C=C)c(C)c3CCC(=O)O[C@@H]3OC(C(=O)O)[C@@H](O)C(O)C3O)c(CCC(=O)O)c2C)NC1=O (some centres undefined) [BILIRUBIN MONOGLUCURONIDE]
Activity [3]: substrate [+]

B1: Solute carrier organic anion transporter family member 1B1 (Homo sapiens) (protein)
chain: MDQNQHLNKTAEAQPSENKKTRYCNGLKMFLAALSLSFIAKTLGAIIMKSSIIHIERRFEISSSLVGFIDGSFEIGNLLVIVFVSYFGSKLHRPKLIGIGCFIMGIGGVLTALPHFFMGYYRYSKETNINSSENSTSTLSTCLINQILSLNRASPEIVGKGCLKESGSYMWIYVFMGNMLRGIGETPIVPLGLSYIDDFAKEGHSSLYLGILNAIAMIGPIIGFTLGSLFSKMYVDIGYVDLSTIRITPTDSRWVGAWWLNFLVSGLFSIISSIPFFFLPQTPNKPQKERKASLSLHVLETNDEKDQTANLTNQGKNITKNVTGFFQSFKSILTNPLYVMFVLLTLLQVSSYIGAFTYVFKYVEQQYGQPSSKANILLGVITIPIFASGMFLGGYIIKKFKLNTVGIAKFSCFTAVMSLSFYLLYFFILCENKSVAGLTMTYDGNNPVTSHRDVPLSYCNSDCNCDESQWEPVCGNNGITYISPCLAGCKSSSGNKKPIVFYNCSCLEVTGLQNRNYSAHLGECPRDDACTRKFYFFVAIQVLNLFFSALGGTSHVMLIVKIVQPELKSLALGFHSMVIRALGGILAPIYFGALIDTTCIKWSTNNCGTRGSCRTYNSTSFSRVYLGLSSMLRVSSLVLYIILIYAMKKKYQEKDINASENGSVMDEANLESLNKNKHFVPSAGADSETHC
Km [4]: 8.2 µM
